# According to EP1345943B1, “INHIBITORS OF PAPILLOMA VIRUS” (BOEHRINGER INGELHEIM (CANADA) LTD., priority 2000, dated 2002):
# Biological target: E1-E2-DNA complex (Human papillomavirus 11, UniProt P04015)
# Assay: E2-dependent E1 DNA binding assay (E1-E2 DNA assay)
# Conditions: E1-E2 DNA assay of Example 11, HPV-11
# Experimental: This particular assay determines the ability of a test compound to inhibit the activity (IC50) of HPV-11 DNA replication. More specifically, in the assay described herein, the inhibitory activity of the test compound is evaluated based on its ability to interfere with the E1-E2-DNA origin of replication interaction, thereby inhibiting initiation of viral DNA replication.
# This assay was modeled on a similar assay for SV40 T Antigen described by McKay (J. Mol. Biol., 1981,145:471). A 400bp radiolabeled DNA probe, containing the -HPV-11 origin of replication (Chiang et al.., 1992, Proc. Natl.-Acad. Sci. USA 89:5799) was produced by pcr, using plasmid pBluescript™ SK encoding the origin (nucleotides 7886-61 of the HPV-11 genome in unique BAMH1 site) as template and primers flanking the origin. Radiolabel was incorporated as [33p]dCTP. Binding assay buffer consisted of: 20 mM Tris pH 7.6, 100 mM NaCI, 1 mM DTT, 1 mM EDTA.
# Other reagents used were protein A-SPA beads (type II, Amersham) and K72 rabbit polyclonal antiserum, raised against a peptide corresponding to the C-terminal 14 amino acids of HPV-11 E1. Following the protocol from Amersham, one bottle of beads was mixed with 25 mL of binding assay buffer. For the assay, a saturating amount of K72 antiserum was added to the beads and the mixture was incubated for 1 h, washed with one volume of binding assay buffer, and then resuspended in the same volume of fresh binding assay buffer. Binding reactions contained 8 ng of E2, approximately 100-200 ng of purified E1, and 0.4 ng of radiolabeled probe in a total of 80 µL of binding assay buffer. After 1 h at room temperature, 25 µL of K72 antibody-SPA bead suspension was added to with the binding reaction and mixed. After an additional hour of incubation at room temperature, the reactions were centrifuged briefly to pellet the beads and the extent of complex formation was determined by scintillation counting on a Packard TopCount™. Typically, the signal for reactions containing E1 and E2 was 20-30 fold higher than the background observed when either E1, E2, or both was omitted.
# Sequence of E1-E2-DNA complex (P04015 whole entry, one chain of several): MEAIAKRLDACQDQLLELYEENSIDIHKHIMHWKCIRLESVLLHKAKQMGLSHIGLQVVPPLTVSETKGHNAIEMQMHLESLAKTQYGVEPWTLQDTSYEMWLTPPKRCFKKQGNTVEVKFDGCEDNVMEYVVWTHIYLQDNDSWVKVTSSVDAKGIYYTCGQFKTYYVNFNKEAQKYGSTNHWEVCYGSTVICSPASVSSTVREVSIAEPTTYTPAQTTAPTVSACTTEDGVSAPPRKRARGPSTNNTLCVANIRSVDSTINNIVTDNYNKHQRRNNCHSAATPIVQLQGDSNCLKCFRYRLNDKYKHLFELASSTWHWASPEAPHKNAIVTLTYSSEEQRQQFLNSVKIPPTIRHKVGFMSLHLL
row,Structure (SMILES),IC50 [µM]
1,O=C(Nc1ccc(Br)c(Cl)c1)C1C(c2ccc(Br)c(Br)c2)OC2(C(=O)c3ccccc3C2=O)C1C(=O)O (racemic) [Compound 1102],0.5 to 5
2,CC(=O)c1ccc(NC(=O)C2C(c3ccc(Cl)c(Cl)c3)OC3(C(=O)c4ccccc4C3=O)C2C(=O)O)cc1 (racemic) [Compound 1047],0.5 to 5
3,O=C(Nc1ccc2c(c1)OCO2)C1C(c2cccc(C(F)(F)F)c2)OC2(C(=O)c3ccccc3C2=O)C1C(=O)O (centres unmarked) [Compound 1031],0.5 to 5
4,O=C(Nc1cccc(Cl)c1)C1C(c2ccc(Br)c(Br)c2)OC2(C(=O)c3ccccc3C2=O)C1C(=O)O (centres unmarked) [Compound 1119],< 0.5
5,"Cc1ccc2c(c1)C(=O)C1(OC(c3ccc(Cl)c(Cl)c3)C(C(=O)Nc3ccc4c(c3)OCO4)C1C(=O)O)C2=O (single isomer, unassigned) [Compound A1005]",< 0.5
6,O=C(Nc1ccccc1)C1C(c2ccc(Cl)cc2)OC2(C(=O)c3ccccc3C2=O)C1C(=O)O (centres unmarked) [Compound 1011],5 to 50
7,COC(=O)C1C(C(=O)Nc2ccc3c(c2)OCO3)C(c2ccc(Cl)c(Cl)c2)OC12C(=O)c1ccccc1C2=O (racemic) [Compound 1022],0.5 to 5
8,O=C(Nc1ccc(F)cc1F)C1C(c2ccc(Cl)cc2)OC2(C(=O)c3ccccc3C2=O)C1C(=O)O (centres unmarked) [Compound 1009],5 to 50
9,"Cc1cc2c(cc1F)C(=O)C1(OC(c3ccc(Br)c(Br)c3)C(C(=O)Nc3ccc(N4CCOCC4)cc3)C1C(=O)O)C2=O (single isomer, unassigned) [Compound A1015]",< 0.5
10,CC(C)(C)OC(=O)Nc1ccc(N2C(=O)C3C(c4ccc(Cl)c(Cl)c4)OC4(C(=O)c5ccccc5C4=O)C3C2=O)cc1 (centres unmarked) [Compound 2018],5 to 50
11,O=C(Nc1ccc2c(c1)OCO2)C1C(c2ccc(Cl)c(Cl)c2)OC2(C(=O)c3ccccc3C2=O)C1C(=O)O (centres unmarked) [Compound 1002],< 0.5
12,O=C(Nc1ccccc1Cl)C1C(c2ccc(Cl)cc2)OC23C(=O)c4ccccc4C2(O)OC(=O)C13 (racemic) [Compound 3006],5 to 50
13,CC(=O)c1ccc(NC(=O)C2C(C=Cc3ccccc3Br)OC3(C(=O)c4ccccc4C3=O)C2C(=O)O)cc1 (centres unmarked) [Compound 4007],0.5 to 5
14,CC(C)(C)c1ccc(NC(=O)C2C(c3ccc(Cl)c(Cl)c3)OC3(C(=O)c4ccccc4C3=O)C2C(=O)O)cc1 (centres unmarked) [Compound 1025],0.5 to 5
15,"Cc1cc2c(s1)C1(O)OC(=O)C3C(C(=O)Nc4ccc(N5CCOCC5)cc4)C(c4ccc(Br)c(Br)c4)OC31C2=O (single isomer, unassigned) [Compound D1002]",< 0.5
16,N#Cc1cccc(NC(=O)C2C(c3ccc(Cl)c(Cl)c3)OC3(C(=O)c4ccccc4C3=O)C2C(=O)O)c1 (centres unmarked) [Compound 1127],0.5 to 5
17,COc1ccc2c(c1)C(=O)C1(OC(c3ccc(Cl)c(Cl)c3)C(C(=O)Nc3ccc(C(C)=O)cc3)C1C(=O)O)C2=O (centres unmarked) [Compound 1129],5 to 50
18,Cc1cccc2c1C(=O)C1(OC(c3ccc(Cl)c(Cl)c3)C(C(=O)Nc3ccc4c(c3)OCO4)C1C(=O)O)C2=O (centres unmarked) [Compound 1042],0.5 to 5
19,Cc1ccc2nc(-c3ccc(NC(=O)C4C(c5ccc(Cl)c(Cl)c5)OC5(C(=O)c6ccccc6C5=O)C4C(=O)O)cc3)sc2c1 (centres unmarked) [Compound 1028],< 0.5
20,Cc1ccc(NC(=O)C2C(c3ccc(Br)c(Br)c3)OC3(C(=O)c4ccccc4C3=O)C2C(=O)O)cc1 (racemic) [Compound 1072],< 0.5
21,O=C(NC1CC1c1ccccc1)C1C(c2ccc(Cl)c(Cl)c2)OC2(C(=O)c3ccccc3C2=O)C1C(=O)O (centres unmarked) [Compound 1066],< 0.5
22,O=C(Nc1ccc2c(c1)OCO2)C1C(c2ccc(C(F)(F)F)cc2)OC2(C(=O)c3ccccc3C2=O)C1C(=O)O (centres unmarked) [Compound 1016],5 to 50
23,O=C1C2C(c3ccc(Cl)c(Cl)c3)OC3(C(=O)c4ccccc4C3=O)C2C(=O)N1c1ccc(O)cc1 (centres unmarked) [Compound 2021],< 0.5
24,O=C(Nc1ccc(OC(F)(F)F)cc1)C1C(c2ccc(F)c(Cl)c2)OC2(C(=O)c3ccccc3C2=O)C1C(=O)O (centres unmarked) [Compound 1131],0.5 to 5
25,O=C(Nc1ccccc1)C1C(c2ccc(F)c(F)c2)OC2(C(=O)c3ccccc3C2=O)C1C(=O)O (centres unmarked) [Compound 1068],5 to 50
26,O=C(Nc1ccc(NC(=O)C2C(c3ccc(Cl)c(Cl)c3)OC3(C(=O)c4ccccc4C3=O)C2C(=O)O)cc1)c1ccccc1 (centres unmarked) [Compound 1057],0.5 to 5
27,O=C(Nc1ccc2c(c1)OCO2)C1C(c2cc3ccccc3o2)OC2(C(=O)c3ccccc3C2=O)C1C(=O)O (centres unmarked) [Compound 4002],5 to 50

row,Structure (SMILES),IC50 [µM]
1,O=C(NCc1ccccc1)C1C(c2ccc(Cl)cc2)OC23C(=O)c4ccccc4C2(O)OC(=O)C13 (racemic) [Compound 3003],5 to 50
2,COc1cccc(C2OC3(C(=O)c4ccccc4C3=O)C(C(=O)O)C2C(=O)Nc2ccc3c(c2)OCO3)c1 (racemic) [Compound 1023],5 to 50
3,COc1ccc(NC(=O)C2C(c3ccc(Cl)cc3)OC3(C(=O)c4ccccc4C3=O)C2C(=O)O)cc1OC (centres unmarked) [Compound 1004],5 to 50
4,O=C(Nc1ccc(N2CCOCC2)cc1)C1C(c2ccc(Br)c(Br)c2)OC2(C(=O)c3ccc(F)cc3C2=O)C1C(=O)O (centres unmarked) [Compound 1144],< 0.5
5,O=C(Nc1ccc2c(c1)OCO2)C1C(c2ccc(Cl)c(Cl)c2)OC2(C(=O)c3cccc(F)c3C2=O)C1C(=O)O (centres unmarked) [Compound 1051],0.5 to 5
6,CCc1ccc(NC(=O)C2C(c3ccc(Cl)c(Cl)c3)OC3(C(=O)c4ccccc4C3=O)C2C(=O)O)cc1 (centres unmarked) [Compound 1055],0.5 to 5
7,"Cc1ccc2c(c1)C(=O)C13OC(c4ccc(Br)c(Br)c4)C(C(=O)NCCc4ccccc4Cl)C1C(=O)OC23O (single isomer, unassigned) [Compound B1004]",5 to 50
8,Cc1ccc2c(c1)C(=O)C1(OC(c3ccc(Br)c(Br)c3)C(C(=O)Nc3ccc(-c4csnn4)cc3)C1C(=O)O)C2=O (centres unmarked) [Compound A1009],5 to 50
9,O=C(Nc1ccc(OC(F)(F)F)cc1)C1C(c2ccc(Br)c(Br)c2)OC2(C(=O)c3ccccc3C2=O)C1C(=O)O (centres unmarked) [Compound 1118],0.5 to 5
10,O=C(Nc1ccc(F)c(F)c1)C1C(c2ccc(Br)c(Br)c2)OC2(C(=O)c3ccccc3C2=O)C1C(=O)O (centres unmarked) [Compound 1105],0.5 to 5
11,O=C(Nc1ccc(C2CCCCC2)cc1)C1C(c2ccc(Cl)c(Cl)c2)OC2(C(=O)c3ccccc3C2=O)C1C(=O)O (centres unmarked) [Compound 1054],< 0.5
12,O=C(NN1CCOCC1)C1C(c2ccc(Br)c(Br)c2)OC2(C(=O)c3ccccc3C2=O)C1C(=O)O (racemic) [Compound 1075],0.5 to 5
13,CC(=O)c1ccc(N2C(=O)C3C(c4ccc(Cl)c(Cl)c4)OC4(C(=O)c5ccccc5C4=O)C3C2=O)cc1 (racemic) [Compound 2016],0.5 to 5
14,"Cc1cc2c(cc1F)C(=O)C1(OC(c3ccc(Br)c(Br)c3)C(C(=O)Nc3ccc(N4CCOCC4)cc3)C1C(=O)O)C2=O (single isomer, unassigned) [Compound A1016]",0.5 to 5
15,Cc1cccc(C2OC3(C(=O)c4ccccc4C3=O)C3C(=O)N(c4ccc5c(c4)OCO5)C(=O)C23)c1 (centres unmarked) [Compound 2014],5 to 50
16,CCCCC(=O)Nc1cc(C2OC3(C(=O)c4ccccc4C3=O)C(C(=O)O)C2C(=O)Nc2ccc(C(C)=O)cc2)ccc1Cl (centres unmarked) [Compound 1141],0.5 to 5
17,O=C(Nc1ccc2c(c1)OCO2)C1C(c2ccc(Br)c(Br)c2)OC2(C(=O)c3ccccc3C2=O)C1C(=O)O (centres unmarked) [Compound 1084],< 0.5
18,O=C(Nc1ccc(Cl)c(Cl)c1)C1C(c2ccc(Br)c(Br)c2)OC2(C(=O)c3ccccc3C2=O)C1C(=O)O (centres unmarked) [Compound 1134],< 0.5
19,CC(=O)c1ccc(NC(=O)C2C(c3ccc(Cl)c(Cl)c3)OC3(C(=O)c4ccc(Cl)cc4C3=O)C2C(=O)O)cc1 (centres unmarked) [Compound 1114],0.5 to 5
20,CCOc1ccccc1NC(=O)C1C(c2ccc(Cl)c(Cl)c2)OC2(C(=O)c3ccccc3C2=O)C1C(=O)O (centres unmarked) [Compound 1136],5 to 50
21,"O=C(Nc1ccc(-c2csnn2)cc1)C1C(c2ccc(Br)c(Br)c2)OC2(C(=O)c3ccccc3C2=O)C1C(=O)O (single isomer, unassigned) [Compound A1001]",5 to 50
22,CSc1ccc(NC(=O)C2C(c3ccc(Br)c(Br)c3)OC3(C(=O)c4ccccc4C3=O)C2C(=O)O)cc1 (centres unmarked) [Compound 1081],< 0.5
23,CC(=O)Nc1ccc(NC(=O)C2C(c3ccc(Cl)c(Cl)c3)OC3(C(=O)c4ccccc4C3=O)C2C(=O)O)cc1 (centres unmarked) [Compound 1035],< 0.5
24,COC(=O)C1C(C(=O)Nc2ccc3c(c2)OCO3)C(c2ccc(Cl)c(Cl)c2)OC12C(=O)c1ccccc1C21CO1 (racemic) [Compound 7001],5 to 50
25,CC(C)c1ccc(C2OC3(C(=O)c4ccccc4C3=O)C(C(=O)O)C2C(=O)Nc2ccc3c(c2)OCO3)cc1 (centres unmarked) [Compound 1008],5 to 50
26,O=C(CNCc1ccc(N2C(=O)C3C(c4ccc(Cl)c(Cl)c4)OC4(C(=O)c5ccccc5C4=O)C3C2=O)cc1)NCCNc1cccc2c(S(=O)(=O)O)cccc12 (centres unmarked) [Compound 2022],5 to 50
